# Assay results: patent US20240002376A1, “COMPOSITIONS AND METHODS FOR G-PROTEIN-COUPLED RECEPTOR 44 DETECTION” (City of Hope, priority 2020, published 2024)
# “Also recorded” adds a separate entry of the source.
# How the values were obtained:
# Assay type in all cases: in vivo
# [1] = Biodistribution of 18F GPR44 radioligand in healthy NOD/SCID mice
# Method: Bio-distribution analysis over time of a unique ^18F GPR44 radioligand in healthy NOD/SCID mice. The biodistribution of [^18F] Ab-1 was investigated in health NOD/SCID mice. The mice were administered doses of the radiotracer i.v. through the tail vein under general anesthesia. At 30, 60, and 90 minutes post-injection, mice were euthanized. The blood, lung, heart, liver, spleen, stomach, small and large intestines, muscle, kidney, pancreas and bone were collected, weighed, and radioactivity counted. […] We also injected cold unlabeled Ab-1, as a blocking agent, and collected the organs at 30 minutes post-injection. Organ uptake varied little from results obtained in mice given the radiotracer.
# GPR44+1.1B4 cells = assay: Biodistribution in NOD/SCID mice implanted with human beta-like 1.1B4 cells
# Method: (§1) Preliminary studies confirmed that the human beta-like 1.1B4 cells express GPR44. However, it was not clear if the radiotracer would localize to these cells in living animals. We performed a biodistribution study in NOD/SCID mice post 3 weeks following implantation of 1.1B4 cells. The blocking agent was cold Ab-1. At 30 minutes post-injection, the mice with/without blocking agent were euthanized and organs were collected. […] For mice with transplanted study, 500 IEQ human islets were transplanted into NOD/SCID mice kidney capsule. We also performed the biodistribution study in the mice with human islets (FIG. 9). […] Ab-1. Further, [^18F]
# human islets = assay: Biodistribution in NOD/SCID mice with human islets transplanted into kidney capsule; details: 500 IEQ human islets in kidney capsule
# Method: as §1
compound,measurement,setting,value
CN(C1CCc2c(c3ccccc3n2CC(=O)O)C1)S(=O)(=O)c1ccc([18F])cc1 (centres unmarked) [[^18F] Ab-1],specific binding in murine tissues,[1]; blocking with cold Ab-1,no specific binding
same,uptake in the murine pancreas,"[1]; i.v. tail vein, 30, 60 and 90 minutes post-injection",minimal uptake
same,uptake in the liver,"[1]; i.v. tail vein, 30, 60 and 90 minutes post-injection, radioactivity counted",Prominent uptake
same,uptake in the kidneys,"[1]; i.v. tail vein, 30, 60 and 90 minutes post-injection, relative to liver",much less so
same,organ uptake with cold unlabeled Ab-1 as blocking agent versus radiotracer alone,[1]; organs collected 30 minutes post-injection,varied little
same,effect of blocking agent cold Ab-1 on uptake in 1.1B4 cells,GPR44+1.1B4 cells; 30 minutes post-injection,decreased by cold Ab-1
same,uptake in other organs before or after administration of cold Ab-1,GPR44+1.1B4 cells; 30 minutes post-injection,not different
same,uptake in implanted 1.1B4 cells,"GPR44+1.1B4 cells; 30 minutes post-injection, 3 weeks after implantation",highest uptake; also recorded: accumulated
same,binding to GPR44+1.1B4 cells,"GPR44+1.1B4 cells; in vivo, blocking with cold Ab-1",specifically binds
same,specific binding to human islets,human islets,high specific binding
same,uptake in human islets,human islets,significant uptake; also recorded: accumulated
